The compound `O=Cc1ccc(-c2ccc([N+](=O)[O-])cc2Br)o1` came in with a melting point of 132 to 136 °C.
The same measure for `Nc1cccc2[nH]ncc12`: 145 to 147 °C.
`O=C1NC(=O)C2(CCSC2)N1` (stereo not drawn) showed a melting point of 243 to 245 °C.
With `N#CCC1=NCCN1`, the melting point lay within 84 to 86 °C.
`CC1CC(=O)N(Cc2ccccc2)c2ccccc2N1` (stereo not drawn) had a melting point of 110 to 112 °C.
The same measure for `CCOC(=O)c1c(NC(=O)C(C)Cl)sc2c1CCC(C)C2` (stereo not drawn): 90 to 93 °C; for `O=C1COc2cc(Br)c(S(=O)(=O)Cl)cc2N1`: 211 to 213 °C.
The figure for `Cc1csc(=O)n1CCBr` is 47 to 51 °C; for `Cc1nc2ccccc2c2c(N)c3ccccc3n12` it is 200 to 202 °C; for `NC(=O)c1cn(CC(=O)O)c2ccccc12` it is 239 to 241 °C.
The figure for `CCCOc1ccc(C=CC(=O)O)cc1OCC` is 149 to 151 °C; for `NS(=O)(=O)c1cccc(N2C(=O)C=CC2=O)c1` it is 220 to 222 °C.
`CCc1c[nH]c(S)n1` came in with a melting point of 163 to 165 °C.
The figure for `NC(=O)NCC1CCCCC1` is 168 to 170 °C.
For the compound `NNC(=O)CN1CCCc2ccccc21`, the melting point lay in the range of 107 to 109 °C.
The figure for `CC1(C)CN(C(=O)OC(C)(C)C)c2ccccc2N1` is 92 to 94 °C.
`CSc1ccc([N+](=O)[O-])c(C(=O)O)c1` displayed a melting point of 176 to 178 °C.
For `CNS(=O)(=O)c1cccc(C(C)=O)c1`, the melting point is 96 to 98 °C.
`CC(Cl)C(=O)Nc1ccc(I)cc1` (stereo not drawn) came in with a melting point of 159 to 161 °C.
The figure for `O=C(O)c1ccc(NS(=O)(=O)c2cc(Cl)sc2Cl)cc1` is 189 to 191 °C; for `Cc1[nH]c2c(F)cccc2c(=O)c1C` it is 284 to 286 °C; for `Cn1c(S)nnc1C1CCS(=O)(=O)C1` (stereo not drawn) it is 151 to 153 °C.
The figure for `CC(C)N1C(=O)CC(C(=O)O)C1c1ccc(Cl)c(F)c1` (stereo not drawn) is 163 to 165 °C.
The same measure for `COc1ccc(S(N)(=O)=O)c([N+](=O)[O-])c1`: 143 to 145 °C.
Regarding `COC1CC(C(=O)O)N(C(=O)OC(C)(C)C)C1` (stereo not drawn), the melting point fell in the range of 79 to 81 °C.
The same measure for `Clc1nnc(-c2ccccc2)n1C1CC1`: 159 to 161 °C.
The same measure for `O=C(O)c1cc(S(=O)(=O)N2CCCC2)c[nH]1`: 175 to 177 °C; for `NC(=O)Cc1ccc2c(c1)CCC2`: 166 to 168 °C.
The same measure for `O=C(O)c1ccc([N+](=O)[O-])s1`: 143 to 151 °C; for `Nc1ncc(C(=O)O)cc1Br`: 299 to 301 °C.
The compound `O=Cc1ccc(OCc2occc2C(=O)O)cc1` returned a melting point of 145 to 147 °C.
The figure for `CCOc1ccc(C(=O)CCl)cc1` is 63 to 65 °C; for `CC(=O)Nc1cccc2c1NCCC2` it is 108 to 110 °C.
The same measure for `O=C(O)c1cc(-c2ccco2)nc2cc(F)ccc12`: 272 to 274 °C; for `CCOc1cc2c(cc1CBr)OC(C)C2` (stereo not drawn): 69 to 71 °C.
The same measure for `CC(C)CC(=O)NC(C(=O)O)C(C)C` (stereo not drawn): 186 to 188 °C.
In the case of `NS(=O)(=O)CC(F)(F)F`, the melting point lay in the range of 97 to 99 °C.
The figure for `O=C(O)c1cncnc1-c1ccccc1` is 141 to 143 °C; for `OCc1cncc2ccccc12` it is 86 to 88 °C.
The figure for `CC(=O)c1ccc(CNC(=O)OC(C)(C)C)nc1C` is 72 to 74 °C; for `Nc1cccc(C(=O)Nc2cnccn2)c1` it is 135 to 137 °C.
As to `Cc1csc(Sc2c(N)cccc2Cl)n1`, the melting point is 132 to 134 °C.
As for `CC1(C(=O)O)CCCc2ccccc21` (stereo not drawn), the melting point is 113 to 115 °C.
With `CCCn1c(S)nnc1CO`, the melting point was 119 to 121 °C.
The same measure for `COC(=O)COc1cc(N)c(Cl)cc1C`: 88 to 90 °C; for `Cn1ccc(CCl)cc1=O`: 64 to 66 °C; for `COC(=O)c1ccc(CN2CCC(CO)CC2)cc1`: 54 to 56 °C.
With `CC(C)N(C)C(=O)C1CCN(C(=O)CCl)CC1`, the melting point lay in the range of 110 to 112 °C.

One may read the melting point as the temperature, or range, at which the solid turns liquid.

These data come from a melting point compilation (Tetko et al.).
